Laboratory results published in PMC8546421, “Molecular modelling of the FOXO4-TP53 interaction to design senolytic peptides for the elimination of senescent cancer cells” (EBioMedicine, 2021).
Where no end group is shown, it is not given here. [ ]: non-standard residue; d: D form.

Experiments:
[1] = test system: Braf/Pten sporadic melanomas; assay: TUNEL staining of melanomas in transgenic mice; assay type: in vivo, mouse; details: intratumoural injection daily over two days, single agents vs saline
Method: Fixed frozen sections of melanomas were stained with the Click-IT Plus TUNEL assay (ThermoFisher C10618) according to the manufacturer's protocol. Stained sections were imaged with a Zeiss A2 upright microscope at either 20x or 10x. At least one of each treatment group were stained and imaged at the same time. All sections from each staining group were set to the same exposure time for TUNEL and DAPI. Any normalization of background levels was performed in Adobe Photoshop and set to the same scale for the entire image and for all other images.

[2] = test system: Braf/Pten sporadic melanomas; assay: SA-β-gal staining of melanomas in transgenic mice; assay type: in vivo, mouse
Method: Senescent and dividing cells or tissue sections were fixed with 4% formaldehyde. The cells were washed with PBS twice before staining with X-gal solution [1 mg/mL 5-bromo-4-chloro-3inolyl-β-D-galactoside (Boehringer Manneheim #745-740) in N,N-dimethylformamide, 5 mM potassium ferricyanide crystalline (#P-8131), 5 mM potassium […] (#P-3289), 2 mM magnesium chloride, and 1x PBS, pH 6.0. Cells or tissue sections were incubated at 37°C for 24 hours. After staining, cells were washed with PBS before being counted and imaged on the Leica Dmi8 microscope.
Mice were aged between 3-8 months and 20-30 g in weight and were housed in specific pathogen free cages. Animals were randomly distributed among treatment groups by assigning mice within the same cage to different treatment regimens. To minimise confounders, mouse treatment order was randomised within each cage. Male and female mice were distributed between all treatment groups since the chemicals used were directly injected and are not metabolized. Researchers were not blinded to the group allocation, but all attempts were made to analyse the data without knowing treatment conditions. […] Mice were then monitored daily and allowed to age until a humane endpoint was reached according to our IACUC protocol, which in this case was tumours of 2 cm in size. […]

[3] = test system: dividing A375 human melanoma cells; assay: Survival study, orthotopic A375 xenograft; assay type: in vivo, mouse; details: local injection once daily for two days
Source text: Mice were aged between 3-8 months and 20-30 g in weight and were housed in specific pathogen free cages. Animals were randomly distributed among treatment groups by assigning mice within the same cage to different treatment regimens. To minimise confounders, mouse treatment order was randomised within each cage. Male and female mice were distributed between all treatment groups since the chemicals used were directly injected and are not metabolized. Researchers were not blinded to the group allocation, but all attempts were made to analyse the data without knowing treatment conditions. NOD.Cg-Prkdcscid Il2rgtm1Wjl/SzJ (NSG) were purchased from The Jackson Laboratory (IMSR Cat# JAX:005557, RRID:IMSR_JAX:005557). NOD.Cg-KitW-41J Tyr + Prkdcscid Il2rgtm1Wjl/ThomJ (NBSGW) were purchased from The Jackson Laboratory (IMSR Cat# JAX:026622, RRID:IMSR_JAX:026622). Immunocompromised mice used for these experiments were all in the NSG background; however, some mice were F1 generation of NSG x NBSGW, thus the brown coat colour as NBSGW mice have tyrosinase. Xenografts containing senescent cells were established by injecting A375-Luc/iRFP human melanoma cells which contained a luciferase expressing gene into immunocompromised NSG ears. Senescence was induced in the cells via doxorubicin treatment (40 nM) then resuspended in DMEM prior to injection. Each ear was then injected with 50 µL containing approximately 1,000,000 cells. The ears were treated once daily for two days with 50 µL of either 5 mg/mL peptide, or saline. To control for confounders, each mouse contained one ear treated with saline (control). For imaging, mice were injected with 3 mg luciferin intravenously and imaged before and after treatment. Transgenic mice (BrafCA, PtenloxP, Tyr::CreERT2) were purchased from The Jackson Laboratory (IMSR Cat# JAX:013590, RRID:IMSR_JAX:013590). These mice were maintained on a C57Bl6 background and all experimental mice contained Tyr::CreER with either Braf^CA/+, Pten^fx/+; Braf^CA/CA, Pten^fx/+, or Braf^CA/+, Pten^fx/fx. […] Hypopigmented melanomas sporadically formed over the next 3-5 months, typically on the back of the mouse. These melanomas were then directly injected with 100 µL of either 20 mg/mL ES2+10%DMSO, saline+10%DMSO, saline+10%Dabrafenib, or 20 mg/mL ES2+10%Dabrafenib. The researchers were not blinded to the experiment, but each mouse contained an internal control and all imaging was done with the same exposure times based upon control tissue. For survival analyses, either 750,000 or 25,000 A375-Luc/iRFP cells were injected intradermally into NSG mice. […] Mice were then monitored daily and allowed to age until a humane endpoint was reached according to our IACUC protocol, which in this case was tumours of 2 cm in size. […]

senescent A375 cells = assay: Peptide efficacy in culture (MTS), senescent cells; assay type: cell-based, human; details: for senolytic activity (in words): senescent vs dividing A375 cells; for IC50: doxorubicin (40 nM)-induced senescent A375 cells, peptide replenished daily for two days, MTS, best fit polynomial, read-out: IC50^sen, concentration to kill 50% of senescent cells
Method: (§1) Cell lines were treated with chemotherapy, doxorubicin (Sigma, Cat. No. 2252) to induce senescence (200 nM for HCT116, 100 nM for B16-F10 and MCF7, 50 nM for SW480 and DLD-1, 40 nM for A375-Luc/iRFP and MCF10a). MCF7 cells were treated with CDK4/6 inhibitor, palbociclib (Selleck Chemicals: S1116) to induce senescence (5 µM). A375 cells were treated with Braf inhibitor, Dabrafenib (Selleck Chemicals: S2807), to induce senescence (10 µM). Peptide efficacy experiments were performed by seeding 10,000 – 20,000 cells in a 96-well plate. The cells were given doxorubicin twice to make the cells senescent. After removal of doxorubicin, the plate was treated with varying concentrations of peptide. The peptide was replenished daily for two days. Cellular proliferation was quantified using the Promega CellTiter 96™ AQueous One Solution Cell Proliferation Assay (MTS) after 2 hours according to the manufacturer's protocol (Promega, G3581). To control for the charge of ES2, ProteoJuice (Millipore Sigma, 71281) was used to deliver ES2 using the manufacturers protocol, except 50 µL of 2 mM ES2 was mixed with 25 µL of ProteoJuice. Varying concentrations of the mixture were administered to A375 cells along with a control of only ProteoJuice.

dividing A375 cells = assay: Peptide efficacy in culture (MTS), dividing cells; assay type: cell-based, human; details: for IC50: peptide replenished daily for two days, MTS, best fit polynomial, read-out: IC50^div, concentration to kill 50% of dividing cells
Method: as §1

[4] = test system: senescent A375 human melanoma cells; assay: Orthotopic xenograft of senescent luciferase A375 cells in mouse ears; assay type: in vivo; details: NSG mouse ears, local injection 50 µL of 5 mg/mL once daily for two days, imaged 24 hours after second treatment; ANOVA p<0.01
Source text: Mice were aged between 3-8 months and 20-30 g in weight and were housed in specific pathogen free cages. Animals were randomly distributed among treatment groups by assigning mice within the same cage to different treatment regimens. To minimise confounders, mouse treatment order was randomised within each cage. Male and female mice were distributed between all treatment groups since the chemicals used were directly injected and are not metabolized. Researchers were not blinded to the group allocation, but all attempts were made to analyse the data without knowing treatment conditions. NOD.Cg-Prkdcscid Il2rgtm1Wjl/SzJ (NSG) were purchased from The Jackson Laboratory (IMSR Cat# JAX:005557, RRID:IMSR_JAX:005557). NOD.Cg-KitW-41J Tyr + Prkdcscid Il2rgtm1Wjl/ThomJ (NBSGW) were purchased from The Jackson Laboratory (IMSR Cat# JAX:026622, RRID:IMSR_JAX:026622). Immunocompromised mice used for these experiments were all in the NSG background; however, some mice were F1 generation of NSG x NBSGW, thus the brown coat colour as NBSGW mice have tyrosinase. Xenografts containing senescent cells were established by injecting A375-Luc/iRFP human melanoma cells which contained a luciferase expressing gene into immunocompromised NSG ears. Senescence was induced in the cells via doxorubicin treatment (40 nM) then resuspended in DMEM prior to injection. Each ear was then injected with 50 µL containing approximately 1,000,000 cells. The ears were treated once daily for two days with 50 µL of either 5 mg/mL peptide, or saline. To control for confounders, each mouse contained one ear treated with saline (control). For imaging, mice were injected with 3 mg luciferin intravenously and imaged before and after treatment. Transgenic mice (BrafCA, PtenloxP, Tyr::CreERT2) were purchased from The Jackson Laboratory (IMSR Cat# JAX:013590, RRID:IMSR_JAX:013590). These mice were maintained on a C57Bl6 background and all experimental mice contained Tyr::CreER with either Braf^CA/+, Pten^fx/+; Braf^CA/CA, Pten^fx/+, or Braf^CA/+, Pten^fx/fx. […] Hypopigmented melanomas sporadically formed over the next 3-5 months, typically on the back of the mouse. These melanomas were then directly injected with 100 µL of either 20 mg/mL ES2+10%DMSO, saline+10%DMSO, saline+10%Dabrafenib, or 20 mg/mL ES2+10%Dabrafenib. The researchers were not blinded to the experiment, but each mouse contained an internal control and all imaging was done with the same exposure times based upon control tissue. For survival analyses, either 750,000 or 25,000 A375-Luc/iRFP cells were injected intradermally into NSG mice. Different combinations of drugs were locally injected to the region once daily for two days with 50 µL of either 5 mg/mL ES2, 10%Dabrafenib, or 5mg/mL ES2+10%Dabrafenib. Dabrafenib was made at 100 mg/mL in DMSO. Mice were then monitored daily and allowed to age until a humane endpoint was reached according to our IACUC protocol, which in this case was tumours of 2 cm in size. Aged C57Bl6 male mice were purchased from the Jackson Laboratory (IMSR Car# JAX:000664, RRID:IMSR_JAX:000664) at 72 weeks of age and were started on the experiment at 82 weeks. Mice were treated with 3 mg of ES2 via tail vein injection weekly for three weeks and weighed weekly. Blood was drawn prior to beginning experiments and at the endpoint. To generate plasma, blood was centrifuged at 1,500g for 10 minutes, then 2,500g for 10 minutes, then frozen for later analyses. […]

Compound | senolytic activity (in words) (senescent A375 cells) | IC50 (dividing A375 cells) [µM] | IC50 (senescent A375 cells) [µM] | luciferase signal compared to E1 and saline [4] | also measured
CC(C)(C)c1nc(-c2cccc(NS(=O)(=O)c3c(F)cccc3F)c2F)c(-c2ccnc(N)n2)s1 [Dabrafenib] |  |  |  |  | effect on apoptosis (TUNEL), in words [1]: no effect on apoptosis; effect on apoptosis (TUNEL), in words ([1]; listed as Dab): no difference; increase of fraction of SA-β-gal+ cells within the melanoma over saline ([2]; Dabrafenib n=8, saline n=5, p<0.001): 11 fold; senescence of the melanoma compared to vehicle, in words ([2]; intratumoural injection daily over two days): strongly induced senescence; effect on survival time, in words ([3]; 25,000 A375 cells): no effect on survival time; effect on survival time, in words ([3]; 750,000 A375 cells): did not alter survival times
H-GRKKRRQRRRPPPRKGGSRRRAWGNQRYARLIRQAIESAPEKRLTLA-OH [E1] | negligible senolytic activity |  |  |  | 
PRKGGRRRRAWGRRRRRRRLRRRLRRAPRKRLTLA [ES2r1] | highest senolytic activity | ~13 | ~6 | statistically significantly reduced luciferase signal | 
PRKGGSRRRAWGRRRYRRRLRRRLRRAPRKRLTLA [ES2r2] | slightly lower senolytic activity | > 20 | ~9 | statistically significantly reduced luciferase signal | 
YGRKKRRQRRRYGRKKRRQRRRYGRKKRRQRRR [ES1] | highest senolytic activity | ~19 | ~4 | statistically significantly reduced luciferase signal | 
[dL][dT][dL][dR][dK][dE][dP][dA][dS][dE][dI][dA][dQ][dS][dI][dL][dE][dA][dY][dS][dQ][dN]G[dW][dA][dN][dR][dR][dS]GG[dK][dR][dP][dP][dP][dR][dR][dR][dQ][dR][dR][dK][dK][dR]G [FOXO4-DRI, reference compound] |  |  |  | statistically significantly reduced luciferase signal | lytic activity in dividing cells (in words) (dividing A375 cells): minimal lytic activity in dividing cells
